Assays:
[1] = system: Gαi:β-arrestin-2 complexes; assay: Split luciferase Gαi-LgBiT:β-arrestin-2-smBiT complex formation in cells overexpressing V2R; assay type: cell-based, human
Method: (§1) HEK293T cells seeded in 6-well plates were co-transfected with 500 ng of smBiT tagged β-arrestin-2, and either 250 ng of LgBiT tagged receptor or 2000 ng of untagged receptor and varying concentrations of LgBiT Gα protein expression vector (most experiments were conducted between 50-200 ng of Gα plasmid) or 2000 ng of mKO tagged β-arrestin-2 and 500 ng of smBiT tagged V2R using a calcium phosphate protocol. Twenty-four hours post-transfection, cells were plated onto clear bottom, white-walled 96-well plates at 50,000-100,000 cells/well in “BRET media”—clear minimum essential medium (GIBCO) supplemented with 2% FBS, 10 mM HEPES, 1×GLUTAMAX™, and 1× Anti-Anti (GIBCO). […] For luminescence split luciferase studies, plates were read with a BioTek SYNERGY™ Neo2 plate reader set at 37° C. with a 485 nm emission filter. […] For split luciferase luminescence experiments, plates were read both before and after ligand treatment to calculate Δnet change in luminescence and subsequently normalized to vehicle treatment. For complex BRET experiments, plates were read on a Berthold Mithras LB940 using pre-warmed media and instrument at 37° C. using a standard Rluc emissions filter (480 nm) with a custom mKO 542 nm long-pass emission filter (Chroma Technology Co., Bellows Falls, Vt.). The BRET ratio was calculated by dividing the mKO signal by the luciferase signal.

[2] = molecular target: T1, Angiotensin II type 1 receptor (AT1R) (Homo sapiens, UniProt P30556); assay: TGF-α shedding assay of canonical G protein signaling at AT1R; assay type: cell-based; settings: four Gα-family proteins tested
T1 sequence (P30556 1-359): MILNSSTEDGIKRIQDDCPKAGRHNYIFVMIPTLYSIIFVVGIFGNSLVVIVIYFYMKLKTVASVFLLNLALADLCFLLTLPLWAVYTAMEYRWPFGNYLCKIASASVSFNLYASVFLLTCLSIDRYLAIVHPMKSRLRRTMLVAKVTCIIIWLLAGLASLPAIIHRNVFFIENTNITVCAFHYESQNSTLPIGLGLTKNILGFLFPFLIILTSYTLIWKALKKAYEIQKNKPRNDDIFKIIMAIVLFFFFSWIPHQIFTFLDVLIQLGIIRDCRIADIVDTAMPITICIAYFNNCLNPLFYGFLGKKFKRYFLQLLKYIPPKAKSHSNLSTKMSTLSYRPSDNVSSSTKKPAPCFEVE

[3] = molecular target: T2, V2R:β-arrestin-2 complexes (Homo sapiens, UniProt P30518); assay: Split luciferase V2R-LgBiT:β-arrestin-2-smBiT association; assay type: cell-based; settings: V2R or β2AR
T2 construct: 3xHA (N); expressed in transfected cells; host or cells: HEK293T
Method: as §1

[4] = system: HEK 293 cells stably expressing AT1R; assay: Wound-healing migration assay, immortalized cells; assay type: cell-based, human; settings: PTX pretreatment 200 ng/mL
Method: HEK 293T cells stably expressing the AT1R were utilized. Briefly, 70 μl of cell suspension at a concentration of 5×10^5 cells per mL was applied into each well of silicone inserts (Ibidi, Martinsried, Germany) on 24 well plate, and after 24 hrs incubation, the inserts were removed to create a wound field. The cells were incubated additionally for 12 hrs with 1 μM of TRV120023 and visualized with a Zeiss Axio Observer microscope (Carl Zeiss, Thornwood, N.Y.). Wound healing was then analyzed using ImageJ (NIH, Bethesda, Md.) wound healing tool macros.

[5] = system: human pulmonary arterial smooth muscle cells (PASMCs); assay: Wound-healing migration assay, primary human cells; assay type: cell-based
Method: Human pulmonary arterial smooth muscle cells (PASMCs) were isolated from human lungs from a de-identified health donor (International Institute for the Advancement of Medicine, Edison, N.J.) with Institutional Review Board approval. Human PASMCs were seeded into 24-well plates at a density of 1.5×10^4 cells per well in Human Smooth Muscle Cell Basal Medium supplemented with Human SMC Growth Supplement (Cell Application, Inc.). At 30% confluency, cells were transfected with 50 ng of control or β-arrestin-1 and β-arrestin-2 ON […]™ siRNA pools (Dharmacon, Inc.). When the cells reached 100% confluency, they were serum starved for 4 hours with 2 hrs of PTX (200 ng/mL) treatment. Scratches were made using small pipette tips. Cells were washed using DPBS and stimulated with basal smooth muscle cell medium containing 1 μM Angiotensin-II (Millipore Sigma) or 10 μM TRV120023 (Genscript USA Inc.). The wound closure was monitored using live-cell station Zeiss Axio Observer microscope (Carl Zeiss, Thornwood, N.Y.). The images were captured in real-time at 0 hour and for every hour until 16 hours. The initial edges of the scratch at 0 hour time point were marked and migrated distance 12-16 hrs afterwards was measured using METAMORPH® Premier software (Molecular Devices, San Jose, Calif.) at the Duke Light Microscopy Core Facility (Durham, N.C.).

ERK1/2 phosphorylation = assay: Phospho-ERK/total ERK immunoblot in 'triple G' HEK 293 cells overexpressing V2R; assay type: cell-based, human; settings: agonist treated
Method: Cells were serum starved for at least four hours, stimulated with the indicated ligand, subsequently washed 1× with ice-cold PBS, lysed in ice-cold RIPA buffer containing phosphatase and protease inhibitors (Phos-STOP (Roche), Complete EDTA free (Sigma)) and rotated for forty-five minutes, and cleared of insoluble debris by centrifugation at >12,000×g (4° C., 15 minutes), after which the supernatant was collected. Protein was resolved on SDS-10% polyacrylamide gels, transferred to nitrocellulose membranes, and immunoblotted with the indicated primary antibody overnight (4° C.). Phospho-ERK (Cell Signaling Technology, #9106) and total ERK (Millipore #06-182) were used to assess ERK activation. A1-CT antibody that recognizes both isoforms of β-arrestin was utilized, with protein loading assessed by alpha-tubulin (Sigma #T6074). Galpha i-1 (13533, Santa Cruz Biotechnology), Galpha q/11/14 (365906, Santa Cruz Biotechnology), Galpha 12 (515445, Santa Cruz Biotechnology), Galpha 13 (293424, Santa Cruz Biotechnology), Galpha s/olf (55545, Santa Cruz Biotechnology) antibodies were used to verify ‘Δ3G’ HEK 293 cells.
Horseradish peroxidase-conjugated polyclonal mouse anti-rabbit-IgG or anti-mouse-IgG were used as secondary antibodies. […] For quantification, phospho-protein signal was normalized to total protein signal using Image Lab (Bio-Rad) within the same blot.

`CCOc1ccc2c(c1)C1(CCC(OCCN3CCOCC3)CC1)C(=O)N2S(=O)(=O)c1ccc(C(=O)NC(C)(C)C)cc1OC` (stereo not shown) [SR121463] was tested, and the “Gαi:β-arrestin complex formation after antagonist pretreatment” value ([1]; HEK 293 cells overexpressing V2R, pretreatment 30 min, 10 uM) was “prevented formation of Gαi:β-arrestin complexes”.

With Angiotensin II [AngII] the “Canonical G protein signaling at AT1R” value [2] was “canonically signals through both Gαq and Gαi”.

pertussis toxin was tested, and the “Effect of pertussis toxin pretreatment on β-arrestin recruitment to receptor” value [3] was “did not affect β-arrestin recruitment to either the V2R or β2AR”, the “Sensitivity of the Gαi:β-arrestin interaction to pertussis toxin” value ([1]; pertussis toxin pretreatment) was “partially sensitive to pertussis toxin” and the “Reduction of TRV120023-mediated migration by pertussis toxin pretreatment” value [4] was roughly 50%. For the same compound, the “Pertussis toxin sensitivity of migration towards TRV120023” value [5] was “pertussis toxin sensitive” and the “ERK phosphorylation after pertussis toxin pretreatment” value (ERK1/2 phosphorylation) was “abrogated, but did not eliminate, ERK phosphorylation”.

Source: patent US11360096B2, “Complex BRET technique for measuring biological interactions” (DUKE UNIVERSITY, priority 2019, dated 2022)
